According to patent publication US4833156A, “Treating amnesia with a pyrrolidone derivative” (Kirin Beer Kabushiki Kaisha, priority 1987, dated 1989):

Tests used:
[1] = tested on: scopolamine induced amnesia in rats; assay: Rat delayed-matching test (scopolamine-induced amnesia); format: in vivo, rat (SD, male, 150 to 300 g); conditions: for remission of scopolamine induced amnesia: oral, 20 min before test, (-)-scopolamine hydrochloride 0.06 mg/kg s.c., delay times 0.1, 4, 16, 32 s, FIG. 3 and FIG. 4
Excerpt: An apparatus equipped with two lever switches on the respective sides of the front face of the inside of an operant experimental box (25×31×33 cm), red lamps just above respective levers and a white lamp at a further upper position was used for the experiment. A rat bred under restricted feeding (SD, male, 150 to 300 g) was placed in the apparatus. Either one of the red lamps arranged on the right and left sides was lit for 5 seconds, and, at a specific time (delayed time) after it was turned off, the white lamp at the center was lit. The system of the apparatus was so set that if the lever which was at the side of the red lamp having lit was pushed, a feed pellet (ca. 50 mg) was given as a correct choice, and if another lever was pushed no pellet was given as an incorrect choice. After the training had been conducted to ensure that, in the test of delay time being 0.1 sec, the correct choice rate was maintained at the level of 80% or more for three consecutive days, the test was conducted. In the test, delay times were set at 0.1, 4, 16 and 32 seconds, and, at each of the delay times, 6 runs were conducted at random (24 runs in total, 1 run/minute). […] N-(4'-chlorobenzenesulfonyl)-2-pyrrolidone and aniracetam were administered orally in the form of suspensions in 0.3% Tween 80 at 20 minutes before test.

[2] = tested on: proline specific endopeptidase; assay: Inhibition of proline specific endopeptidase activity (residual peptidase activity); format: biochemical; conditions: inhibitor concentration not given
Procedure: The inhibitory effects of the compounds represented by the formula (I) were determined by measuring the residual peptidase activity. The experimental procedure was agreed with the method by Tadashi Yoshimoto and Daisuke Tsuru: Tanpakushitsu, Kakusan and Koso, 29 (2), 127 (1984).

ddY male mice = assay: Acute toxicity, oral administration to mice; format: in vivo, mouse (ddY; conditions: 7 week old, result in words
Excerpt: (§1) Acute toxicity was evaluted by oral administration of the compounds to ddY male mice (7 week old).

[3] = Acute toxicity, oral administration to mice; format: in vivo, mouse (ddY; conditions: mouse, in vivo, ddY male mice, 7 week old
Excerpt: as §1

[4] = tested on: cycloheximide (CXM)-induced amnesia in mice; assay: Mouse step-down test (cycloheximide-induced amnesia); format: in vivo, mouse (ddY, male, 5 to 6 week old); conditions: conclusion for the mouse step-down test
Procedure: The test was carried out in accordance with the method described by Nabeshima et al.: Psychopharmacology, (1986) 89, 334-337. That is, a wooden platform (4×4×4 cm) was placed in the center on a floor of a stainless steel grid (30×30 cm), and the whole apparatus was surrounded with clear acrylic resin plates. In acquisition test, a mouse (ddY, male, 5 to 6 week old) was placed on the platform, and electric stimulus was applied for 20 seconds immediately after the mouse stepped down on the grid. Then the mouse was taken out of the apparatus and cycloheximide hydrochloride (30 mg/kg) was administered subcutaneously in order to induce amnesia. In the retention test, the mouse was again placed on the platform, and the time before the mouse stepped down on the grid was measured as the step-down latency. N-(4'-chlorobenzenesulfonyl)-2-pyrrolidone and aniracetam were individually suspended in 0.3% Tween 80 and administered orally at 20 minutes before acquisition test.

Residual Activity [2] | SMILES | remission of scopolamine induced amnesia [1] | anti-amnestic effect compared with aniracetam ([1]; conclusion for the rat delayed-matching test) | safety (ddY male mice) | LD50 [3] | anti-amnestic effect compared with aniracetam [4]
89.5 | COc1ccc(C(=O)N2CCCC2=O)cc1 [Aniracetam, aniracetam, reference compound] | did not remitted at all scopolamine induced amnesia |  |  |  | 
47.4 | Cc1ccc(S(=O)(=O)N2CCCC2=O)cc1 [Synthetic Example 1,2, N-(4'-toluenesulfonyl)-2-pyrrolidone] |  |  |  |  | 
51.3 | O=C1CCCN1S(=O)(=O)c1ccccc1 [Synthetic Example 5,6, N-benzenesulfonyl-2-pyrrolidone] |  |  |  |  | 

SMILES | Residual Activity [2] | remission of scopolamine induced amnesia [1] | anti-amnestic effect compared with aniracetam ([1]; conclusion for the rat delayed-matching test) | safety (ddY male mice) | LD50 [3] | anti-amnestic effect compared with aniracetam [4]
O=C1CCCN1S(=O)(=O)c1ccc(Cl)cc1 [Synthetic Example 3,4, N-(4'-chlorobenzenesulfonyl)-2-pyrrolidone] | 51.3 | showed remission of scopolamine induced amnesia at several dosages and delay times | exhibited an anti-amnestic effect and was more effective than aniracetam | High level of safety | ≥ 2000 mg/kg | exhibited an anti-amnestic effect and was more effective than aniracetam
